Measurements as given in ChEMBL document CHEMBL1152576, “E-Combretastatin and E-resveratrol structural modifications: antimicrobial and cancer cell growth inhibitory beta-E-nitrostyrenes” (Bioorg Med Chem, 2009).
≈ marks a conversion by molar mass, not a printed value. Calls of active or inactive are those of the source. The rule behind the calls is not given here.

System: P388
Assay: Cytotoxicity against mouse P388 cells after 48 hrs by sulforhodamine B assay
Type: functional
Details: P388, 48 h, read-out: ED50 (the source's name)

Row | Compound | EC50 [µg/mL]
1 | COc1ccc(/C=C/[N+](=O)[O-])cc1OC | 0.34 (≈ 1.63 µM)
2 | O=[N+]([O-])/C=C/c1ccc(O)cc1 | 1.5 (≈ 9.08 µM)

System: Escherichia coli
Assay: Antimicrobial activity against Escherichia coli ATCC 25922 assessed clear zone in inhibition per disk by CLSI disk diffusion susceptibility assay
Type: functional
Details: not given

Row | Compound | MIC [µg]
3 | COc1ccc(/C=C/[N+](=O)[O-])cc1OC | 25
4 | O=[N+]([O-])/C=C/c1ccc(O)cc1 | 12.5

System: Stenotrophomonas maltophilia
Assay: Antimicrobial activity against Stenotrophomonas maltophilia ATCC 13637 by broth microdilution susceptibility assay
Type: functional
Details: not given

Row | Compound | MIC [µg/mL]
5 | COc1ccc(/C=C/[N+](=O)[O-])cc1OC | > 64
6 | O=[N+]([O-])/C=C/c1ccc(O)cc1 | > 64

System: KM-20L2
Assay: Cytotoxicity against human KM20L2 cells after 48 hrs by sulforhodamine B assay
Type: functional
Details: KM-20L2, 48 h

Row | Compound | GI50 [µg/mL]
7 | COc1ccc(/C=C/[N+](=O)[O-])cc1OC | 1.3 (≈ 6.21 µM)
8 | O=[N+]([O-])/C=C/c1ccc(O)cc1 | 1.5 (≈ 9.08 µM)

System: Neisseria gonorrhoeae
Assay: Antimicrobial activity against Neisseria gonorrhoeae ATCC 49226 after 24 hrs by broth microdilution susceptibility assay
Type: functional
Details: ATCC 49226, 24 h

Row | Compound | MBC [µg/mL]
9 | COc1ccc(/C=C/[N+](=O)[O-])cc1OC | 4 (≈ 19.1 µM)
10 | O=[N+]([O-])/C=C/c1ccc(O)cc1 | 4 (≈ 24.2 µM)

System: Enterobacter cloacae
Assay: Antimicrobial activity against Enterobacter cloacae ATCC 13047 assessed clear zone in inhibition per disk by CLSI disk diffusion susceptibility assay
Type: functional
Details: not given

Row | Compound | MIC [µg]
11 | COc1ccc(/C=C/[N+](=O)[O-])cc1OC | >100
12 | O=[N+]([O-])/C=C/c1ccc(O)cc1 | 25

System: Enterococcus faecalis
Assay: Antimicrobial activity against Enterococcus faecalis ATCC 29212 assessed clear zone in inhibition per disk by CLSI disk diffusion susceptibility assay
Type: functional
Details: not given

Row | Compound | MIC [µg]
13 | COc1ccc(/C=C/[N+](=O)[O-])cc1OC | 25
14 | O=[N+]([O-])/C=C/c1ccc(O)cc1 | 6.25

System: SK-MEL-5
Assay: Cytotoxicity against human SK-MEL-5 cells after 48 hrs by sulforhodamine B assay
Type: functional
Details: not given

Row | Compound | GI50
15 | COc1ccc(/C=C/[N+](=O)[O-])cc1OC | inactive
16 | O=[N+]([O-])/C=C/c1ccc(O)cc1 | inactive

System: not listed separately
Assay: Inhibition of tubulin polymerization
Details: not given

Row | Compound | IC50 [µM]
17 | COc1ccc(/C=C/[N+](=O)[O-])cc1OC | 6
18 | O=[N+]([O-])/C=C/c1ccc(O)cc1 | 10

System: NCI-H460
Assay: Cytotoxicity against human NCI-H460 cells after 48 hrs by sulforhodamine B assay
Type: functional
Details: NCI-H460, 48 h

Row | Compound | GI50 [µg/mL]
19 | COc1ccc(/C=C/[N+](=O)[O-])cc1OC | 0.46 (≈ 2.2 µM)
20 | O=[N+]([O-])/C=C/c1ccc(O)cc1 | 1.7 (≈ 10.3 µM)

System: Neisseria gonorrhoeae
Assay: Antimicrobial activity against Neisseria gonorrhoeae ATCC 49226 assessed clear zone of inhibition measured per disk by CLSI disk diffusion susceptibility assay
Type: functional
Details: not given

Row | Compound | MIC [µg]
21 | COc1ccc(/C=C/[N+](=O)[O-])cc1OC | 0.78
22 | O=[N+]([O-])/C=C/c1ccc(O)cc1 | <0.78

System: DU-145
Assay: Cytotoxicity against human DU145 cells after 48 hrs by sulforhodamine B assay
Type: functional
Details: DU-145, 48 h

Row | Compound | GI50 [µg/mL]
23 | COc1ccc(/C=C/[N+](=O)[O-])cc1OC | 1.4 (≈ 6.69 µM)
24 | O=[N+]([O-])/C=C/c1ccc(O)cc1 | 1.5 (≈ 9.08 µM)

System: Staphylococcus aureus
Assay: Antimicrobial activity against Staphylococcus aureus ATCC 29213 assessed clear zone in inhibition per disk by CLSI disk diffusion susceptibility assay
Type: functional
Details: not given

Row | Compound | MIC [µg]
25 | COc1ccc(/C=C/[N+](=O)[O-])cc1OC | 25
26 | O=[N+]([O-])/C=C/c1ccc(O)cc1 | 50

System: Cryptococcus neoformans
Assay: Antifungal activity against Cryptococcus neoformans ATCC 90112 after 48 hrs by broth microdilution susceptibility assay
Type: functional
Details: ATCC 90112, 48 h

Row | Compound | MFC [µg/mL]
27 | COc1ccc(/C=C/[N+](=O)[O-])cc1OC | 16 (≈ 76.5 µM)
28 | O=[N+]([O-])/C=C/c1ccc(O)cc1 | 8 (≈ 48.4 µM)

System: Candida albicans
Assay: Antifungal activity against Candida albicans ATCC 90028 after 48 hrs by broth microdilution susceptibility assay
Type: functional
Details: ATCC 90028, 48 h

Row | Compound | MIC [µg/mL]
29 | COc1ccc(/C=C/[N+](=O)[O-])cc1OC | 16 (≈ 76.5 µM)
30 | O=[N+]([O-])/C=C/c1ccc(O)cc1 | 16 (≈ 96.9 µM)

System: SF-268
Assay: Cytotoxicity against human SF268 cells after 48 hrs by sulforhodamine B assay
Type: functional
Details: not given

Row | Compound | GI50
31 | O=[N+]([O-])/C=C/c1ccc(O)cc1 | inactive

Same assay, conditions: SF-268, 48 h

Row | Compound | GI50 [µg/mL]
32 | COc1ccc(/C=C/[N+](=O)[O-])cc1OC | 0.71 (≈ 3.39 µM)

System: Streptococcus pneumoniae
Assay: Antimicrobial activity against Streptococcus pneumoniae ATCC 6303 by broth microdilution susceptibility assay
Type: functional
Details: not given

Row | Compound | MIC [µg/mL]
33 | COc1ccc(/C=C/[N+](=O)[O-])cc1OC | > 64
34 | O=[N+]([O-])/C=C/c1ccc(O)cc1 | 64 (≈ 388 µM)

System: Candida albicans
Assay: Antifungal activity against Candida albicans ATCC 90028 after 24 hrs by broth microdilution susceptibility assay
Type: functional
Details: ATCC 90028, 24 h

Row | Compound | MFC [µg/mL]
35 | COc1ccc(/C=C/[N+](=O)[O-])cc1OC | 16 (≈ 76.5 µM)
36 | O=[N+]([O-])/C=C/c1ccc(O)cc1 | 16 (≈ 96.9 µM)

System: Cryptococcus neoformans
Assay: Antimicrobial activity against Cryptococcus neoformans ATCC 90112 assessed clear zone in inhibition per disk by CLSI disk diffusion susceptibility assay
Type: functional
Details: not given

Row | Compound | MIC [µg]
37 | COc1ccc(/C=C/[N+](=O)[O-])cc1OC | 3.12
38 | O=[N+]([O-])/C=C/c1ccc(O)cc1 | 6.25

System: Enterobacter cloacae
Assay: Antimicrobial activity against Enterobacter cloacae ATCC 13047 by broth microdilution susceptibility assay
Type: functional
Details: not given

Row | Compound | MIC [µg/mL]
39 | COc1ccc(/C=C/[N+](=O)[O-])cc1OC | > 64
40 | O=[N+]([O-])/C=C/c1ccc(O)cc1 | > 64

System: Streptococcus pneumoniae
Assay: Antimicrobial activity against Streptococcus pneumoniae ATCC 6303 assessed clear zone in inhibition per disk by CLSI disk diffusion susceptibility assay
Type: functional
Details: not given

Row | Compound | MIC [µg]
41 | COc1ccc(/C=C/[N+](=O)[O-])cc1OC | 12.5
42 | O=[N+]([O-])/C=C/c1ccc(O)cc1 | 6.25

System: BXPC-3
Assay: Cytotoxicity against human BxPC3 cells after 48 hrs by sulforhodamine B assay
Type: functional
Details: BXPC-3, 48 h

Row | Compound | GI50 [µg/mL]
43 | COc1ccc(/C=C/[N+](=O)[O-])cc1OC | 1.5 (≈ 7.17 µM)
44 | O=[N+]([O-])/C=C/c1ccc(O)cc1 | 1.6 (≈ 9.69 µM)

System: Staphylococcus aureus
Assay: Antimicrobial activity against Staphylococcus aureus ATCC 29213 by broth microdilution susceptibility assay
Type: functional
Details: not given

Row | Compound | MIC [µg/mL]
45 | COc1ccc(/C=C/[N+](=O)[O-])cc1OC | > 64
46 | O=[N+]([O-])/C=C/c1ccc(O)cc1 | > 64

System: Candida albicans
Assay: Antimicrobial activity against Candida albicans ATCC 90028 assessed clear zone in inhibition per disk by CLSI disk diffusion susceptibility assay
Type: functional
Details: not given

Row | Compound | MIC [µg]
47 | COc1ccc(/C=C/[N+](=O)[O-])cc1OC | 6.25
48 | O=[N+]([O-])/C=C/c1ccc(O)cc1 | 12.5

System: Stenotrophomonas maltophilia
Assay: Antimicrobial activity against Stenotrophomonas maltophilia ATCC 13637 assessed clear zone in inhibition per disk by CLSI disk diffusion susceptibility assay
Type: functional
Details: not given

Row | Compound | MIC [µg]
49 | COc1ccc(/C=C/[N+](=O)[O-])cc1OC | >100
50 | O=[N+]([O-])/C=C/c1ccc(O)cc1 | 6.25

System: OVCAR-3
Assay: Cytotoxicity against human OVCAR-3 cells after 48 hrs by sulforhodamine B assay
Type: functional
Details: not given

Row | Compound | GI50
51 | COc1ccc(/C=C/[N+](=O)[O-])cc1OC | inactive
52 | O=[N+]([O-])/C=C/c1ccc(O)cc1 | inactive

System: A498
Assay: Cytotoxicity against human A498 cells after 48 hrs by sulforhodamine B assay
Type: functional
Details: not given

Row | Compound | GI50
53 | COc1ccc(/C=C/[N+](=O)[O-])cc1OC | inactive
54 | O=[N+]([O-])/C=C/c1ccc(O)cc1 | inactive

System: Neisseria gonorrhoeae
Assay: Antimicrobial activity against Neisseria gonorrhoeae ATCC 49226 by broth microdilution susceptibility assay
Type: functional
Details: not given

Row | Compound | MIC [µg/mL]
55 | COc1ccc(/C=C/[N+](=O)[O-])cc1OC | 4 (≈ 19.1 µM)
56 | O=[N+]([O-])/C=C/c1ccc(O)cc1 | 4 (≈ 24.2 µM)

System: Escherichia coli
Assay: Antimicrobial activity against Escherichia coli ATCC 25922 by broth microdilution susceptibility assay
Type: functional
Details: not given

Row | Compound | MIC [µg/mL]
57 | COc1ccc(/C=C/[N+](=O)[O-])cc1OC | > 64
58 | O=[N+]([O-])/C=C/c1ccc(O)cc1 | > 64

System: SF-295
Assay: Cytotoxicity against human SF295 cells after 48 hrs by sulforhodamine B assay
Type: functional
Details: not given

Row | Compound | GI50
59 | COc1ccc(/C=C/[N+](=O)[O-])cc1OC | inactive

Same assay, conditions: SF-295, 48 h

Row | Compound | GI50 [µg/mL]
60 | O=[N+]([O-])/C=C/c1ccc(O)cc1 | 1.7 (≈ 10.3 µM)

System: Micrococcus luteus
Assay: Antimicrobial activity against Micrococcus luteus Presque Isle 456 assessed clear zone in inhibition per disk by CLSI disk diffusion susceptibility assay
Type: functional
Details: not given

Row | Compound | MIC [µg]
61 | COc1ccc(/C=C/[N+](=O)[O-])cc1OC | 50
62 | O=[N+]([O-])/C=C/c1ccc(O)cc1 | >100

System: Micrococcus luteus
Assay: Antimicrobial activity against Micrococcus luteus Presque Isle 456 by broth microdilution susceptibility assay
Type: functional
Details: not given

Row | Compound | MIC [µg/mL]
63 | COc1ccc(/C=C/[N+](=O)[O-])cc1OC | > 64
64 | O=[N+]([O-])/C=C/c1ccc(O)cc1 | > 64

System: Enterococcus faecalis
Assay: Antimicrobial activity against Enterococcus faecalis ATCC 29212 by broth microdilution susceptibility assay
Type: functional
Details: not given

Row | Compound | MIC [µg/mL]
65 | COc1ccc(/C=C/[N+](=O)[O-])cc1OC | > 64
66 | O=[N+]([O-])/C=C/c1ccc(O)cc1 | > 64

System: MCF7
Assay: Cytotoxicity against human MCF7 cells after 48 hrs by sulforhodamine B assay
Type: functional
Details: MCF7, 48 h

Row | Compound | GI50 [µg/mL]
67 | COc1ccc(/C=C/[N+](=O)[O-])cc1OC | 0.53 (≈ 2.53 µM)
68 | O=[N+]([O-])/C=C/c1ccc(O)cc1 | 0.48 (≈ 2.91 µM)

System: Cryptococcus neoformans
Assay: Antifungal activity against Cryptococcus neoformans ATCC 90112 after 72 hrs by broth microdilution susceptibility assay
Type: functional
Details: ATCC 90112, 72 h

Row | Compound | MIC [µg/mL]
69 | COc1ccc(/C=C/[N+](=O)[O-])cc1OC | 16 (≈ 76.5 µM)
70 | O=[N+]([O-])/C=C/c1ccc(O)cc1 | 8 (≈ 48.4 µM)
